# Calls of active or inactive are those of the source.
# What was measured:
# [1] = target: T1, E3 ubiquitin-protein ligase XIAP (Homo sapiens, UniProt P98170); assay: Counter Screen using XIAP-Bir3 for Chemical Antagonists of Bir1/2 domains of IAP-family anti-apoptotic proteins. [Related pubchem assays (depositor defined):AID1018, AID1449, AID1514, AID1638, AID1749, AID1750, AID488957, AID488963]
# [2] = target: T1, E3 ubiquitin-protein ligase XIAP; assay: XIAP antagonists, biochemical, IAP family, fluorescence polarization (AID 1018); assay type: functional
# [3] = target: T2, Runt-related transcription factor 1/Core-binding factor subunit beta (Homo sapiens, UniProt Q01196+Q13951); assay: inhibitors of RUNX1 Runt–CBFb-SMMHC binding, primary screen, biochemical, FRET, Cerulean-Runt, Venus-CBFb-SMMHC, uHTS (AID 1434); assay type: protein assay;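 also: partner is the CBFb-SMMHC leukemia fusion protein rather than wild-type CBFb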
# T2 sequence (Q01196 whole entry, the tested form may be a part): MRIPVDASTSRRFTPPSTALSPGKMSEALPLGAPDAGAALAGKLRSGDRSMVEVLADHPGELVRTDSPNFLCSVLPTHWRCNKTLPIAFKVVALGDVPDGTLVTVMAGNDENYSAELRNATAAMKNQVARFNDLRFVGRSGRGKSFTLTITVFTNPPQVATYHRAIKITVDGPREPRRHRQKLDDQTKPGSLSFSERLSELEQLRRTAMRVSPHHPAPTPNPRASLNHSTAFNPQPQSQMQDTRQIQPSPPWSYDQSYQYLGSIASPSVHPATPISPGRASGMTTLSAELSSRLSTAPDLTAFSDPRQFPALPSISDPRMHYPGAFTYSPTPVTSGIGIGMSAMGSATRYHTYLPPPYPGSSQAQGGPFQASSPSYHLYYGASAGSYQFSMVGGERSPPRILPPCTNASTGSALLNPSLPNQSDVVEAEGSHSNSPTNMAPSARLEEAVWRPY
# T2 sequence (Q13951 whole entry, the tested form may be a part): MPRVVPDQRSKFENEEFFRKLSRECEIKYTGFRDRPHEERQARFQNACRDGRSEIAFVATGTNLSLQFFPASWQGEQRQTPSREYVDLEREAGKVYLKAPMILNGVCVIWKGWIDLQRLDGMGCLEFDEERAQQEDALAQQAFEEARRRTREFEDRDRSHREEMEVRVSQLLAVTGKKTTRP
# [4] = target: T2, Runt-related transcription factor 1/Core-binding factor subunit beta; assay: inhibitors of RUNX1 Runt–CBFb-SMMHC binding, biochemical, TR-FRET (AID 1438); assay type: protein assay
# [5] = inhibitors of intracellular T. cruzi replication, confirmation, NIH3T3 host cells, beta-gal luminescence (AID 2044); assay type: functional, cell-based;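 also: intracellular parasites grown in NIH/3T3 mouse fibroblasts as host cells; luminescent beta-galactosidase reporter signal from transgenic T. cruzi replicating inside host cells; inhibitors lower the luminescence signal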
# [6] = cytotoxicity toward NIH3T3 fibroblasts, dose response, counter-screen, cell-based, ATP luminescence, mouse fibroblasts (AID 2010); assay type: functional;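 also: cells exposed to compound for about 90 hours before reading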
# [7] = target: T3, G-protein coupled receptor 55 (Homo sapiens, UniProt Q9Y2T6); assay: GPR55 antagonists blocking LPI-driven arrestin recruitment, primary screen, imaging, U2OS, beta-arrestin-GFP, LPI agonist (AID 2013); assay type: functional;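 also: antagonist potency measured as reduced agonist-driven arrestin aggregation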
# T3 sequence (Q9Y2T6 whole entry): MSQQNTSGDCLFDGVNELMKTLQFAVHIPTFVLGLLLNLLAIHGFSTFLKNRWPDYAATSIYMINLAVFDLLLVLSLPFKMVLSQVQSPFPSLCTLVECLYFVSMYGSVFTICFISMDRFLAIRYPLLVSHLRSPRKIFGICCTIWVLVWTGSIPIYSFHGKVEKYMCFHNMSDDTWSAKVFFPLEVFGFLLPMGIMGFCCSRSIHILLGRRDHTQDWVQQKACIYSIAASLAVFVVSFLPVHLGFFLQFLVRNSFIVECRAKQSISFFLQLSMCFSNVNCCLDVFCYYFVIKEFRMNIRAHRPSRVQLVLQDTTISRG
# [8] = target: Voltage-dependent T-type calcium channel subunit alpha-1H (Homo sapiens, UniProt O95180); assay type: functional;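 also: channel activity triggered by adding a high calcium stimulation buffer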
# [9] = target: Signal transducer and activator of transcription 3 (Homo sapiens, UniProt P40763); assay: STAT3 inhibitors, late-stage profile, late-stage follow-up, cell-based, STAT1 panel, qPCR, cytotoxicity, panel member STAT3 Inhibition (AID 2078)
# [10] = target: Signal transducer and activator of transcription 1-alpha/beta (Homo sapiens, UniProt P42224); assay: STAT3 inhibitors, late-stage profile, late-stage follow-up, cell-based, STAT1 panel, qPCR, cytotoxicity, panel member STAT1 Inhibition (AID 2078)
# [11] = target: T4, Type-1 angiotensin II receptor (Homo sapiens, UniProt P30556); assay: AT1 receptor agonists, dose response, selectivity assay for APJ receptor agonist project, cell-based, uHTS hits (AID 488865); assay type: functional;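 also: beta-arrestin recruitment to AT1 measured by enzyme fragment complementation luminescence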
# T4 sequence (P30556 whole entry): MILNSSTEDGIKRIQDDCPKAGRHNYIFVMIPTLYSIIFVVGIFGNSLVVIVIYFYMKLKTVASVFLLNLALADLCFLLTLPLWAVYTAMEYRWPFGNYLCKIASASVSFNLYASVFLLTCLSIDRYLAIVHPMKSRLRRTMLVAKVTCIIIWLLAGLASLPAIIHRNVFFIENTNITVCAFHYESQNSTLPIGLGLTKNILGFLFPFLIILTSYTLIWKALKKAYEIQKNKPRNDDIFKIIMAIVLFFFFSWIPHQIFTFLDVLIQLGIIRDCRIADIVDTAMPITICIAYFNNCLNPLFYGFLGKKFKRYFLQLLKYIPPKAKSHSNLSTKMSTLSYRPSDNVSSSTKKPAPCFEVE
# [12] = target: 1-acylglycerol-3-phosphate O-acyltransferase ABHD5/Perilipin-5 (Homo sapiens, UniProt Q00G26+Q8WTS1); assay: Luminescence-based biochemical high throughput dose response assay for inhibitors of the interaction of the lipase co-activator protein, abhydrolase domain containing 5 (ABHD5) with perilipin-5 (MLDP; PLIN5) (2K validation set). [Related pubchem assays (depositor defined):AID493035, AID493241]
# Perilipin-1/ABHD5 = Perilipin-1/ABHD5 (Homo sapiens, UniProt O60240+Q8WTS1); assay: Luminescence-based biochemical high throughput dose response assay for inhibitors of the interaction of the lipase co-activator protein, abhydrolase domain containing 5 (ABHD5) with perilipin-1 (PLIN1) (2K validation set). [Related pubchem assays (depositor defined):AID493027, AID493057]
# Chain of Perilipin-1/ABHD5 (Q8WTS1 whole entry, the tested form may be a part): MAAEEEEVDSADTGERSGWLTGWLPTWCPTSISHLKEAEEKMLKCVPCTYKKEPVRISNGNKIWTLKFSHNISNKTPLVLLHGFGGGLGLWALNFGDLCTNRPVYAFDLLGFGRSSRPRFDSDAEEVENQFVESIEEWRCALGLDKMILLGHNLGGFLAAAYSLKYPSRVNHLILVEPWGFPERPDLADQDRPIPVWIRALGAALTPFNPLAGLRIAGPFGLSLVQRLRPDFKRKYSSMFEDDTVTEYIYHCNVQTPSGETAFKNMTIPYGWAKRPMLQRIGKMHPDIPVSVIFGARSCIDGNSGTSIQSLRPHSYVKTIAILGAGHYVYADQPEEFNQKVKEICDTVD
# Chain of Perilipin-1/ABHD5 (O60240 whole entry, the tested form may be a part): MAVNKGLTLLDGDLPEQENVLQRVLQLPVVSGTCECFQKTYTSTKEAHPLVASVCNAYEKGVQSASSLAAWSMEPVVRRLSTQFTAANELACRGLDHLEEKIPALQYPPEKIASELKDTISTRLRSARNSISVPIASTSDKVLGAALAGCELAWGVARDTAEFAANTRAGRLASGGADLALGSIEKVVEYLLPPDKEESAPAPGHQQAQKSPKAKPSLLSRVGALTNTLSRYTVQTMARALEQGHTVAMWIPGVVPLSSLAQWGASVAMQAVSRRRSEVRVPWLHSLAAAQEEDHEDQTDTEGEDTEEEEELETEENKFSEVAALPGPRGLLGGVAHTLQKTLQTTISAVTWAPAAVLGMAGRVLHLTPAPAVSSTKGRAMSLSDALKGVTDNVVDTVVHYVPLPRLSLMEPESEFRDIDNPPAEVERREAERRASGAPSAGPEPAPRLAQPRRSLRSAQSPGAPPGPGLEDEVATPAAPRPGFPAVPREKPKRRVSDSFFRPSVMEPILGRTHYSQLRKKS
# [13] = target: Intestinal-type alkaline phosphatase (Homo sapiens, UniProt P09923); assay: activation of human intestinal alkaline phosphatase – biochemical, dose response (AID 488873); assay type: functional
# Chain of Intestinal-type alkaline phosphatase (Homo sapiens, UniProt P09923) (P09923 whole entry): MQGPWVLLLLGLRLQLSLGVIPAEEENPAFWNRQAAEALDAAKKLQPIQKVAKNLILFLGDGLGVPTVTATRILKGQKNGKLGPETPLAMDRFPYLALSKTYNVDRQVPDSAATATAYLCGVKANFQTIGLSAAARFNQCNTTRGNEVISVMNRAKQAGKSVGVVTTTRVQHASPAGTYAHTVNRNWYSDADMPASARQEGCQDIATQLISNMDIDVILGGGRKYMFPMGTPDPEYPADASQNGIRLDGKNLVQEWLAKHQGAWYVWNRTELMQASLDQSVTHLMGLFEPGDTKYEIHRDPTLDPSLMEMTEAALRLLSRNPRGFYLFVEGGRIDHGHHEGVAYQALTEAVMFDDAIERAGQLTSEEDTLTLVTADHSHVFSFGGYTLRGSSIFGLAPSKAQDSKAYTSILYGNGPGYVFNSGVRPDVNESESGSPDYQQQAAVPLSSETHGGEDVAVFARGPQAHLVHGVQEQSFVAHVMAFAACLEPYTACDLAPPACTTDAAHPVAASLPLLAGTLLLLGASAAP
# [14] = target: Intestinal-type alkaline phosphatase (Mus musculus, UniProt P24822); assay: mouse intestinal alkaline phosphatase activators, dose response, biochemical, luminescence, uHTS hits (AID 488783); assay type: functional
# Chain of Intestinal-type alkaline phosphatase (Mus musculus, UniProt P24822) (P24822 whole entry): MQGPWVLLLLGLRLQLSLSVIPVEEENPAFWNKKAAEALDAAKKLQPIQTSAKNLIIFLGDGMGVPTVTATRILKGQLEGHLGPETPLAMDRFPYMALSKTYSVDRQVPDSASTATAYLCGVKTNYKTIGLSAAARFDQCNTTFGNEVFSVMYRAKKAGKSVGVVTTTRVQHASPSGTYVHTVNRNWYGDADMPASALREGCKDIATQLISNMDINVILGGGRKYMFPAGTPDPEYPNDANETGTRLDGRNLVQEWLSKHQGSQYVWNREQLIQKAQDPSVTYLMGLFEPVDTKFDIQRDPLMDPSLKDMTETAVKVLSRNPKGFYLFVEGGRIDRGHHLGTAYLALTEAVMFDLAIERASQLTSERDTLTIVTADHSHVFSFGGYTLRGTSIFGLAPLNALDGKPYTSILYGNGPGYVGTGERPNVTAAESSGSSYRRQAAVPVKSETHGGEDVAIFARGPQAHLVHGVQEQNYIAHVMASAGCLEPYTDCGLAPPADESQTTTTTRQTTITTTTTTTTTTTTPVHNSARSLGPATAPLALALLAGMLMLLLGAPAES
# [15] = target: T5, Alkaline phosphatase, tissue-nonspecific isozyme (Homo sapiens, UniProt P05186); assay: TNAP enzyme activators, dose response, selectivity assay for mouse IAP activator project, biochemical, TNAP isozyme, mouse IAP uHTS hits (AID 488880); assay type: functional
# T5 sequence (P05186 whole entry): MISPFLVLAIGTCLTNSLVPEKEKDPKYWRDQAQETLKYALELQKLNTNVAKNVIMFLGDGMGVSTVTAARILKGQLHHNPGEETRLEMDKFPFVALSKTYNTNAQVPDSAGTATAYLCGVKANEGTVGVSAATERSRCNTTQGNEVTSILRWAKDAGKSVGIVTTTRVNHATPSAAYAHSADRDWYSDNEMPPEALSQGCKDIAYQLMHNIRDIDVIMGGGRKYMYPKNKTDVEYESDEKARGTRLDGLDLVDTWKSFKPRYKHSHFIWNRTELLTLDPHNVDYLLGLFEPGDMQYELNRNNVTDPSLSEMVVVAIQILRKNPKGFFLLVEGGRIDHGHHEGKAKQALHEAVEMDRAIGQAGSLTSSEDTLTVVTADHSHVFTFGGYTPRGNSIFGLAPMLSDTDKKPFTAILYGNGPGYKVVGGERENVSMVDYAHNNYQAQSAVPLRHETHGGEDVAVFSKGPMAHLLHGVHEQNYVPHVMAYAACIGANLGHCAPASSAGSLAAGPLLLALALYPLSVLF
# Coagulation factor XII = target: T6, Coagulation factor XII (Homo sapiens, UniProt P00748); assay: FXIIa inhibitor potency, concentration-response, biochemical (AID 716); assay type: functional
# T6 sequence (P00748 whole entry): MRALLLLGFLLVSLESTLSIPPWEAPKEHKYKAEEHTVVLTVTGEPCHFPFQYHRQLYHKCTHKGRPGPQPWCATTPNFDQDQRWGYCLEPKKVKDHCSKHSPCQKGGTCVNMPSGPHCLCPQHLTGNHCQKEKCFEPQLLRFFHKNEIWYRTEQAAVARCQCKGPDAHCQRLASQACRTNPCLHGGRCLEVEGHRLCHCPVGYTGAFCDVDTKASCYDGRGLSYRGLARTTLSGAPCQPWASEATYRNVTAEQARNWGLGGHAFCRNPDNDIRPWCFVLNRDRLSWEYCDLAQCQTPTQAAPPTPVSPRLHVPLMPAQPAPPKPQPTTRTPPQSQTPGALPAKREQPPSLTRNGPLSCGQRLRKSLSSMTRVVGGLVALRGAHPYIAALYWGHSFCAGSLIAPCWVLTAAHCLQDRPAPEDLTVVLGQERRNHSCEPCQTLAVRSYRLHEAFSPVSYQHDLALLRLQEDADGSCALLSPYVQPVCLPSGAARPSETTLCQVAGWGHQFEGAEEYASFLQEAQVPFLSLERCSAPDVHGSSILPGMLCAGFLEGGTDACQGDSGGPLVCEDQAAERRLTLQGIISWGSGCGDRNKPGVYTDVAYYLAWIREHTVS
# Integrin alpha-L = Integrin alpha-L (Mus musculus, UniProt P24063); assay: modulators of CD8 T cell-vesicle binding, dose response, powder samples, mouse 2C CD8+ cells (AID 504565); assay type: functional
# T-cell = assay: inhibitors of CD8+ T cell–vesicle binding, dose response, mouse 2C CD8+ T cells, flow cytometry (AID 485284); assay type: functional
# Mu-type opioid receptor = Mu-type opioid receptor (Homo sapiens, UniProt P35372); assay: SAR Analysis of Agonists of the MOR Receptor using an Image-Based Assay - Set 3. [Related pubchem assays (depositor defined):AID1777, AID1785, AID1786, AID1966, AID2133, AID2136, AID2284, AID2285, AID2352]; assay type: functional
# [16] = target: Delta-type opioid receptor (Homo sapiens, UniProt P41143); assay: SAR Analysis of Agonists of the DOR Receptor using an Image-Based Assay - Set 3. [Related pubchem assays (depositor defined):AID1777, AID1786]; assay type: functional
# Chain of Delta-type opioid receptor (P41143 whole entry): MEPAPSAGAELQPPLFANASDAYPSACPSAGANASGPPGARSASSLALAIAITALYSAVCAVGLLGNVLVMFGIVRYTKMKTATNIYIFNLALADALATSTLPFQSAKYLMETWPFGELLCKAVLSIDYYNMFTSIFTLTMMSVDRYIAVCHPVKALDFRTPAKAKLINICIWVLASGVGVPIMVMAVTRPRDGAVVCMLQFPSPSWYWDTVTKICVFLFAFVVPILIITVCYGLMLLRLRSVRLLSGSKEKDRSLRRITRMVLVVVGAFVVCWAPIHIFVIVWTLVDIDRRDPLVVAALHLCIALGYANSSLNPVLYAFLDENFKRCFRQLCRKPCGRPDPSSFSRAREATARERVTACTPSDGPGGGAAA
# Hexokinase = Hexokinase (Trypanosoma brucei, UniProt Q38C41); assay: Confirmation assay for inhibitors of Trypanosoma brucei hexokinase 1-Analogue-first series. [Related pubchem assays (depositor defined):AID1430, AID1632, AID2516, AID2560, AID2579, AID2600, AID449725, AID492951]; assay type: functional
# [17] = target: T7, G-protein coupled receptor 35 (Homo sapiens, UniProt Q9HC97); assay: SAR analysis of Agonists of the GPR35 Receptor using an Image-Based Assay - Set 4. [Related pubchem assays (depositor defined):AID2013, AID2026]; assay type: functional
# T7 sequence (Q9HC97 whole entry): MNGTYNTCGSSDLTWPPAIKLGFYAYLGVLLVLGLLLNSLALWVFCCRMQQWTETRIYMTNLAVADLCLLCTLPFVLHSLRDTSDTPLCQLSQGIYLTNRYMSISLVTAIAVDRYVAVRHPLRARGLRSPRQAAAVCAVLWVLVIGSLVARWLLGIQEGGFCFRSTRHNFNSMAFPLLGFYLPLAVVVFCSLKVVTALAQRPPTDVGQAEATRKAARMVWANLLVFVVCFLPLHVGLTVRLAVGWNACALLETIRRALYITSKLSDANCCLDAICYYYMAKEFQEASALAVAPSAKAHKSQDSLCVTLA
# Cannabinoid receptor 1 [18] = target: T8, Cannabinoid receptor 1 (Homo sapiens, UniProt P21554); assay: SAR analysis of agonists of the Cannabinoid Receptor 1 using an Image-Based Assay - Set 4. [Related pubchem assays (depositor defined):AID2013, AID2026]; assay type: functional
# T8 sequence (P21554 whole entry): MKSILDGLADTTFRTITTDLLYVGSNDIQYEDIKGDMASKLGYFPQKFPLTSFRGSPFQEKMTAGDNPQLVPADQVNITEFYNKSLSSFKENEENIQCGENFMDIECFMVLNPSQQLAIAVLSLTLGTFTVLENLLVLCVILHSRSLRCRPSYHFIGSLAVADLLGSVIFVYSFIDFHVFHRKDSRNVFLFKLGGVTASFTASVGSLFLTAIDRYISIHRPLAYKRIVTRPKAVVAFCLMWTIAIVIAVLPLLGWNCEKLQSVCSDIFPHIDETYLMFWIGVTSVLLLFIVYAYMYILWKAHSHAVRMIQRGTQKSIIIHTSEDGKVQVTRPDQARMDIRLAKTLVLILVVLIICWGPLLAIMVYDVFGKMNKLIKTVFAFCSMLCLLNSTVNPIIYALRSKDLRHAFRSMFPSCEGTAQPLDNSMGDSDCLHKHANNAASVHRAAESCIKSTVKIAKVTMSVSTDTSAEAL
# [19] = target: T7, G-protein coupled receptor 35; assay: SAR analysis of Antagonists of the GPR35 Receptor using an Image-Based Assay - Set 6. [Related pubchem assays (depositor defined):AID2013, AID2026]; assay type: functional
# Cannabinoid receptor 1 [20] = target: T8, Cannabinoid receptor 1; assay: SAR analysis of antagonists of the Cannabinoid Receptor 1 using an Image-Based Assay - Set 4. [Related pubchem assays (depositor defined):AID2013, AID2026]; assay type: functional
# [21] = target: T3, G-protein coupled receptor 55; assay: SAR Analysis of Selective Antagonists of GPR55 using an Image-Based Assay - Set 4. [Related pubchem assays (depositor defined):AID2013, AID2026]; assay type: functional
# Cannabinoid receptor 2 [22] = target: T9, Cannabinoid receptor 2 (Homo sapiens, UniProt P34972); assay: SAR analysis of antagonists of the Cannabinoid Receptor 2 using an Image-Based Assay - Set 3. [Related pubchem assays (depositor defined):AID2013, AID2026]; assay type: functional
# T9 sequence (P34972 whole entry): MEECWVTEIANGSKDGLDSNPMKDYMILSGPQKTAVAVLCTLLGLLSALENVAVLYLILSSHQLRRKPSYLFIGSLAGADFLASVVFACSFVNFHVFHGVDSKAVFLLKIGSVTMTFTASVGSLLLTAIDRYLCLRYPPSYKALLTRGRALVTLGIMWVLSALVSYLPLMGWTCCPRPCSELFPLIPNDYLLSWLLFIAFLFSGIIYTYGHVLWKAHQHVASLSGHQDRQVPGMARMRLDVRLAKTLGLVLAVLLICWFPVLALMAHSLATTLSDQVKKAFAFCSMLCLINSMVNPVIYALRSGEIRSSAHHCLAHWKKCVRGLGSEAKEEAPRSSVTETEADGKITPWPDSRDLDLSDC
# Cannabinoid receptor 2 [23] = target: T9, Cannabinoid receptor 2; assay: SAR analysis of agonists of the Cannabinoid Receptor 2 using an Image-Based Assay - Set 3. [Related pubchem assays (depositor defined):AID2013, AID2026]; assay type: functional
# SUMO-activating enzyme = SUMO-activating enzyme (Homo sapiens, UniProt Q9UBT2); assay: SUMOylation inhibitor hit validation, confirmation, SUMOylation inhibitor project, biochemical, AlphaScreen (AID 2018); assay type: functional
# [24] = growth suppression of PTEN-null colon cells, dose response, cell-based, HCT116 PTEN knockout (AID 1047); assay type: functional;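 also: HCT116 colon tumor cells with PTEN knocked out; cells exposed to compound for 60 hours before readout; potency for loss of cell viability measured by luminescence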
# [25] = growth suppression of beta-catenin-knockout colon cells, dose response, cell-based, HCT116, human colon tumor (AID 1045); assay type: functional;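 also: HCT116 colon tumor cells with beta catenin knocked out; cells exposed to compound for 60 hours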
# INS1 = assay: beta cell apoptosis inhibitors, cytokine rescue, dose response, luminescence, retest (AID 449756); assay type: functional, cell-based; conditions: Rattus norvegicus;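 also: cell death triggered by IL-1 beta plus TNF-alpha plus IFN-gamma mixture; protective hits raise ATP signal compared with cytokine alone wells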
# T1 sequence (P98170 whole entry): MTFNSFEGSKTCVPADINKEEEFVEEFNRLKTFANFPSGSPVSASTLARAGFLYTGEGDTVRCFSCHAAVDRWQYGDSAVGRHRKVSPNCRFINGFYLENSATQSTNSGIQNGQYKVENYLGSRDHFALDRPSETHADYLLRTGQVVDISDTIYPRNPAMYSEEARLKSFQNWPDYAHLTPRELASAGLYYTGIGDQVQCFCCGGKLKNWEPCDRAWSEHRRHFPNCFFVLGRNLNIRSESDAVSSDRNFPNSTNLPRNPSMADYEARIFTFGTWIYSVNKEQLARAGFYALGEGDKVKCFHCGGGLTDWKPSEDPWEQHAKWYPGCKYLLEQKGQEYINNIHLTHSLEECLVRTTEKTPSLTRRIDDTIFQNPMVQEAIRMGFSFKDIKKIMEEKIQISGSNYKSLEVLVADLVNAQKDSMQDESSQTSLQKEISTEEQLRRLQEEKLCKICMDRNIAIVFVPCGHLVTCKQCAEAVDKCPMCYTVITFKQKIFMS
smiles,measurement,setting,value
COc1ccc(-c2nc(Cn3c(SCc4ccccc4F)nc4ccncc43)c(C)o2)cc1,IC50,[1],> 100 µM (inactive)
same,IC50,[2],> 100 µM (not active)
CCN1CCS/C1=C\C=C\C1=[N+](CC)CCS1,IC50,[3],1.35 µM (active)
same,IC50,[4],> 100 µM (inactive)
same,EC50,[5],< 0.1 µM (active)
same,EC50,[6],> 60 µM (not active)
same,EC50,cells,0.028 µM (active)
O=C(CSc1nc2ccccc2o1)Nc1ccccc1N1CCCCCC1,IC50,[7],2.06 µM (active)
same,EC50,[8],8.41 µM (active)
NNC(=O)c1cc2c(N3CCC(Cc4ccccc4)CC3)ncnc2s1,IC50,[9],13.7 µM (inactive)
same,IC50,[10],> 55.7 µM (inactive)
O=c1oc2cc(OCc3ccc([N+](=O)[O-])cc3)ccc2c2c1CCCC2,EC50,[11],> 100 µM (inactive)
COc1ccc(O)c(C(=O)/C=C/c2cc3ccccc3o2)c1,IC50,[12],4.85 µM (active)
same,IC50,Perilipin-1/ABHD5,4.8 µM (active)
Cc1ccc(NC(=O)CCNS(=O)(=O)c2ccc3nc(O)oc3c2)c(Cl)c1,EC50,[13],20.4 µM (active)
same,EC50,[14],14.9 µM (active)
same,EC50,[15],28.1 µM (active)
COc1ccc(C(=O)c2c(C)oc3ccc(O)c(CN4CCOCC4)c23)cc1,IC50,Coagulation factor XII,> 50 µM (inactive)
O=C(O)C1CCC(Cn2c(SCc3cc(=O)n4cc(Cl)ccc4n3)nc3ccsc3c2=O)CC1 (centres undefined),EC50,Integrin alpha-L,51.9 µM (inactive)
same,EC50,T-cell,18.2 µM (active)
Cc1cc(C)c(CSc2nnc(-c3ccccn3)n2Cc2ccco2)c(C)c1,EC50,Mu-type opioid receptor,> 32 µM (inactive)
same,EC50,[16],> 64 µM (inactive)
O=C(Cn1sc2cc(F)ccc2c1=O)Nc1ccccc1,IC50,Hexokinase,4.34 µM (active)
N=c1c(C(=O)NCc2cccnc2)cc2c(=O)n3ccccc3nc2n1C1CCCC1,EC50,[17],> 32 µM (inactive)
same,EC50,Cannabinoid receptor 1 [18],> 32 µM (inactive)
same,IC50,[19],> 32 µM (inactive)
same,IC50,Cannabinoid receptor 1 [20],> 32 µM (inactive)
same,IC50,[21],5.85 µM (active)
same,IC50,Cannabinoid receptor 2 [22],> 32 µM (inactive)
same,EC50,Cannabinoid receptor 2 [23],7.94 µM (active)
CCCCCCCC(=O)Nc1ccc(C(=O)N/N=C/c2cccc([N+](=O)[O-])c2)cc1,IC50,SUMO-activating enzyme,34.7 µM (active)
same,EC50,[24],3.02 µM (active)
same,EC50,[25],2.55 µM (active)
same,AC50,INS1,4.85 µM (active)

# — ChEMBL document CHEMBL1201862, “PubChem BioAssay data set” (2004)
